# Experimental data: patent US9434711B2 (Janssen Pharmaceutica, NV, priority 2007, dated 2016)
# Target: canine TRPM8 (Canis lupus familiaris, UniProt Q1A7N1)
# Assay: In Vitro Canine TRPM8 Functional Assay (Ca2+ fluorescence, icilin activation)
# Type: cell-based
# Conditions: for inhibition at 0.2 µM / % Inh @ 0.2 (μM): compound at 0.2 μM, canine TRPM8, icilin activation; for inhibition at 0.2 µM: read-out: % Inh @ 0.2; for IC50: HEK293 cells stably expressing canine TRPM8, icilin activation, eight-point dose-response, read-out: IC50
# Method in brief: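 Canine TRPM8 stably expressed in HEK293; compound added 5 min before icilin challenge (~80% max response), with fluorescent Ca2+ signal tracked throughout.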
# Chain of canine TRPM8 (Q1A7N1 1-1104): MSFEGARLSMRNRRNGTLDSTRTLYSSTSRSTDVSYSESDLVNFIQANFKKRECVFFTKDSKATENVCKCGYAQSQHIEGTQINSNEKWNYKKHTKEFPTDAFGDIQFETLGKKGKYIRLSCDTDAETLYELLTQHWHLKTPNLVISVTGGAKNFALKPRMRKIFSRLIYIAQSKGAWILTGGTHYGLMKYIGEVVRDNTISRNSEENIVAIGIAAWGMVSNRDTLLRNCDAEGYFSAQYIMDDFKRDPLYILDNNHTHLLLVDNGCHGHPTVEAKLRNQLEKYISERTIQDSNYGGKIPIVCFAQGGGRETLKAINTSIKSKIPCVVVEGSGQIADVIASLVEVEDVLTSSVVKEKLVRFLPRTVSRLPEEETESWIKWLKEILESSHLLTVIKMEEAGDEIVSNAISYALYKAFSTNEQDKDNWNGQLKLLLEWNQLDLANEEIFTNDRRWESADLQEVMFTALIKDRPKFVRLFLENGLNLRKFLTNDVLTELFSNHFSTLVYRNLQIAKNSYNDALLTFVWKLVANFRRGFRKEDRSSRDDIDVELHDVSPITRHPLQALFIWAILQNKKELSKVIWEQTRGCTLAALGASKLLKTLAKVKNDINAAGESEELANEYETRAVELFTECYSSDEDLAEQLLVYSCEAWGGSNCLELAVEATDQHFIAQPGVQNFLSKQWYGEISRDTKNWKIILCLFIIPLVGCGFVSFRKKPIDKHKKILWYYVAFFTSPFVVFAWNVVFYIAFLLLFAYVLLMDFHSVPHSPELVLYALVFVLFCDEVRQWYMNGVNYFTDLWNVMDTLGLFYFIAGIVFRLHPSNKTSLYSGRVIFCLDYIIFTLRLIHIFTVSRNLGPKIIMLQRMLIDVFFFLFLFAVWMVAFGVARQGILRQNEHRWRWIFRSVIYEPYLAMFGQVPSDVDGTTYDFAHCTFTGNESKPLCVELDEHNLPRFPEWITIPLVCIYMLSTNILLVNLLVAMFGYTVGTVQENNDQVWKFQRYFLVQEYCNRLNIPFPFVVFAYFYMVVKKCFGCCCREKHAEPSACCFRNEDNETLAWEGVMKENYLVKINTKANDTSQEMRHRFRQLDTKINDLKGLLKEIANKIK
SMILES,inhibition at 0.2 µM,IC50,% Inh @ 0.2 (μM)
"O=S(=O)(c1cccnc1)N(CCCC(F)(F)F)c1cc2ccccc2s1 [Compound 383, N-(Benzo[b]thiophen-2-yl)-N-(4,4,4-trifluoro-butyl)-pyridin-3-ylsulfonamide]",49%,–,–
"Cc1c(N(CCCC(F)(F)F)S(=O)(=O)c2ccc3[nH]c(=O)oc3c2)sc2ccccc12 [Compound 384, N-(3-Methyl-benzo[b]thiophen-2-yl)-N-(4,4,4-trifluoro-butyl)-2-oxo-2,3-dihydro-benzooxazol-6-yl-sulfonamide]",96%,17 nM,–
"CC(=O)c1c(N(CCC(F)(F)F)S(=O)(=O)c2ccc(C(=O)O)cc2)sc2ccccc12 [Compound 385, N-(3-Acetyl-benzo[b]thiophen-2-yl)-N-(3,3,3-trifluoro-propyl)-4-carboxy-benzenesulfonamide]",54%,–,–
"CC(=O)c1c(N(Cc2ccc(F)c(C(F)(F)F)c2)S(=O)(=O)c2ccc(Br)cc2)sc2ccccc12 [Compound 386, N-(3-Acetyl-benzo[b]thiophen-2-yl)-4-bromo-N-(4-fluoro-3-trifluoromethyl-benzyl)benzenesulfonamide]",101%,12.8 nM,–
"CC(=O)c1c(N(Cc2ccc(F)c(C(F)(F)F)c2)S(=O)(=O)c2ccc(C#N)cc2)sc2ccccc12 [Compound 387, N-(3-Acetyl-benzo[b]thiophen-2-yl)-4-cyano-N-(4-fluoro-3-trifluoromethyl-benzyl)-benzenesulfonamide]",98%,31 nM,–
CC(C)(O)c1c(N(Cc2ccc(F)c(C(F)(F)F)c2)S(=O)(=O)c2ccc(Br)cc2)sc2ccccc12 [Compound 388],–,19 nM,97%
"CC(=O)c1ccc(S(=O)(=O)N(Cc2ccc(F)c(C(F)(F)F)c2)c2sc3ccccc3c2C(C)(C)O)cc1 [Compound 389, 4-Acetyl-N-(4-fluoro-3-trifluoromethylbenzyl)-N-(3-(1-hydroxy-1-methyl-ethyl)-benzo[b]thiophen-2-yl)-benzenesulfonamide]",97%,10 nM,–
"CCN(c1sc2ccccc2c1Br)S(=O)(=O)c1ccc(C(=O)O)cc1 [Compound 390, N-(3-Bromo-benzo[b]thiophen-2-yl)-N-(ethyl)-4-carboxy-benzenesulfonamide]",69%,–,–
"CCCN(c1sc2ccccc2c1Br)S(=O)(=O)c1ccc(C(=O)O)cc1 [Compound 391, N-(3-Bromo-benzo[b]thiophen-2-yl)-N-(propyl)-4-carboxy-benzenesulfonamide]",93%,47 nM,–
"CCCCCN(c1sc2ccccc2c1Br)S(=O)(=O)c1ccc(C(=O)O)cc1 [Compound 392, N-(3-Bromo-benzo[b]thiophen-2-yl)-N-(pentyl)-4-carboxy-benzenesulfonamide]",93%,7 nM,–
"CCCCCCN(c1sc2ccccc2c1Br)S(=O)(=O)c1ccc(C(=O)O)cc1 [Compound 393, N-(3-Bromo-benzo[b]thiophen-2-yl)-N-(hexyl)-4-carboxy-benzenesulfonamide]",95%,5 nM,–
"O=C(O)c1ccc(S(=O)(=O)N(CCCC(F)(F)F)c2sc3ccccc3c2Br)cc1 [Compound 394, N-(3-Bromo-benzo[b]thiophen-2-yl)-N-(4,4,4-trifluoro-butyl)-4-carboxy-benzenesulfonamide]",101%,9 nM,–
"CC(C)(C)OCCCN(c1sc2ccccc2c1Br)S(=O)(=O)c1ccc(C(=O)O)cc1 [Compound 397, N-(3-Bromo-benzo[b]thiophen-2-yl)-N-(3-tert-butoxypropyl)-4-carboxy-benzenesulfonamide]",95%,8 nM,–
"Cc1c(N(CC2CC2)S(=O)(=O)c2ccc(C(=O)O)cc2)sc2ccccc12 [Compound 399, N-(3-Methyl-benzo[b]thiophen-2-yl)-N-(cyclopropylmethyl)-4-carboxy-benzenesulfonamide]",93%,36 nM,–
"Cc1c(N(CCOC(C)(C)C)S(=O)(=O)c2ccc(C(=O)O)cc2)sc2ccccc12 [Compound 401, N-(3-Methyl-benzo[b]thiophen-2-yl)-N-(2-tert-butoxy-ethyl)-4-carboxy-benzenesulfonamide]",91%,5 nM,–
"CCN(c1sc2ccccc2c1C)S(=O)(=O)c1ccc(C(=O)OC)cc1 [Compound 402, N-(3-Methyl-benzo[b]thiophen-2-yl)-N-(ethyl)-4-carbomethoxy-benzenesulfonamide]",38%,–,–
"CCN(c1sc2ccccc2c1C)S(=O)(=O)c1ccc(C(=O)O)cc1 [Compound 403, N-(3-Methyl-benzo[b]thiophen-2-yl)-N-(ethyl)-4-carboxy-benzenesulfonamide]",52%,–,–

SMILES,inhibition at 0.2 µM,IC50,% Inh @ 0.2 (μM)
"CCCN(c1sc2ccccc2c1C)S(=O)(=O)c1ccc(C(=O)O)cc1 [Compound 404, N-(3-Methyl-benzo[b]thiophen-2-yl)-N-(propyl)-4-carboxy-benzenesulfonamide]",96%,–,–
"COC(=O)c1cccc(CN(c2sc3ccccc3c2Br)S(=O)(=O)c2cccnc2)c1 [Compound 405, N-(3-Bromo-benzo[b]thiophen-2-yl)-N-(3-carbomethoxy-benzyl)-pyridin-3-ylsulfonamide]",95%,36 nM,–
"COC(=O)c1ccc(CN(c2sc3ccccc3c2Br)S(=O)(=O)c2cccnc2)cc1 [Compound 406, N-(3-Bromo-benzo[b]thiophen-2-yl)-N-(4-carbomethoxy-benzyl)-pyridin-3-ylsulfonamide]",66%,–,–
"O=S(=O)(c1cccnc1)N(CCCC(F)(F)F)c1sc2ccccc2c1Br [Compound 407, N-(3-Bromo-benzo[b]thiophen-2-yl)-N-(4,4,4-trifluoro-butyl)-pyridin-3-yl-sulfonamide]",96%,43 nM,–
"O=S(=O)(c1cccnc1)N(CCCC(F)(F)F)c1sc2ccccc2c1Cl [Compound 408, N-(3-Chloro-benzo[b]thiophen-2-yl)-N-(4,4,4-trifluoro-butyl)-3-pyridin-3-yl-sulfonamide]",–,122 nM,78%
"Cc1c(N(CCCC(F)(F)F)S(=O)(=O)c2ccc(C(=O)O)cc2)sc2ccccc12 [Compound 410, N-(3-Methyl-benzo[b]thiophen-2-yl)-N-(4,4,4-trifluoro-butyl)-4-carboxy-benzenesulfonamide]",96%,17 nM,–
"N#Cc1ccc(S(=O)(=O)N(Cc2ccc(F)c(C(F)(F)F)c2)c2cc3ccccc3s2)cc1 [Compound 411, N-(Benzo[b]thiophen-2-yl)-N-(4-fluoro-3-trifluoromethyl-benzyl)-4-cyano-benzenesulfonamide]",43%,–,–
"COC(=O)c1ccc(S(=O)(=O)N(CCCC(F)(F)F)c2sc3cc(F)ccc3c2C)cc1 [Compound 412, N-(6-Fluoro-3-methyl-benzo[b]thiophen-2-yl)-N-(4,4,4-trifluoro-butyl)-4-carbomethoxybenzenesulfonamide]",13%,–,–
"NC(=O)c1ccc(S(=O)(=O)N(Cc2ccc(F)c(C(F)(F)F)c2)c2cc3ccccc3s2)cc1 [Compound 413, N-(Benzo[b]thiophen-2-yl)-N-(4-fluoro-3-trifluoromethyl-benzyl)-4-carboxamide-benzenesulfonamide]",–,46 nM,93%
"NC(=O)c1ccc(S(=O)(=O)N(CCCC(F)(F)F)c2cc3ccccc3s2)cc1 [Compound 414, N-(Benzo[b]thiophen-2-yl)-N-(4,4,4-trifluoro-butyl)-4-carboxamide-benzene-sulfonamide]",–,–,33%
"COC(=O)c1ccc(S(=O)(=O)N(Cc2ccc(F)c(C(F)(F)F)c2)c2sc3ccccc3c2C(C)(C)O)cc1 [Compound 415, N-(4-Fluoro-3-trifluoromethylbenzyl)-N-(3-(1-hydroxy-1-methyl-ethyl)-benzo[b]thiophen-2-yl)-4-carbomethoxy-benzenesulfonamide]",92%,5 nM,–
"COC(=O)c1ccc(S(=O)(=O)N(CCCOC(C)(C)C)c2sc3ccccc3c2C)cc1 [Compound 416, N-(3-Methyl-benzo[b]thiophen-2-yl)-N-(3-tert-butoxy-propyl)-4-carbomethoxy-benzenesulfonamide]",95%,12 nM,–
"CNCc1c(N(Cc2ccc(F)c(C(F)(F)F)c2)S(=O)(=O)c2ccccc2)sc2ccccc12 [Compound 417, N-(4-Fluoro-3-trifluoromethyl-benzyl)-N-(3-methylaminomethyl-benzo[b]thiophen-2-yl)-benzenesulfonamide]",93%,62 nM,–
"CN(C)Cc1c(N(Cc2ccc(F)c(C(F)(F)F)c2)S(=O)(=O)c2ccccc2)sc2ccccc12 [Compound 418, N-(3-Dimethylaminomethyl-benzo[b]thiophen-2-yl)-N-(4-fluoro-3-trifluoromethyl-benzyl)-benzenesulfonamide]",90%,69 nM,–
"CCCCN(c1sc2ccccc2c1C=O)S(=O)(=O)c1ccc(C(=O)OC)cc1 [Compound 419, N-(Butyl)-N-(3-formyl-benzo[b]thiophene-2-yl)-4-carbomethoxy-benzenesulfonamide]",74%,345 nM,–
"CCCCN(c1sc2ccccc2c1CN(C)C)S(=O)(=O)c1ccc(C(=O)OC)cc1 [Compound 420, N-(3-Dimethylaminomethyl-benzo[b]thiophen-2-yl)-N-(butyl)-4-carbomethoxy-benzenesulfonamide]",48%,–,–
"O=S1(=O)C(N(Cc2ccc(F)c(C(F)(F)F)c2)S(=O)(=O)c2ccccc2)=Cc2ccccc21 [Compound 421, N-(4-Fluoro-3-trifluoromethyl-benzyl)-N-(1,1-dioxo-benzo[b]thiophen-2-yl)-benzenesulfonamide]",90%,64 nM,–
